Each structure is given as a SMILES string.

The record followed here is a melting point compilation (Tetko et al.; mined from patent text by program, amines drawn as free bases though some values may be those of a salt).

With `COc1ccccc1-c1ccc(C(=O)N2Cc3ccc(C(=O)NCCc4ccc(O)cc4)n3Cc3ccccc32)cc1C`, the melting point lay in the range of 138 to 147 °C.
Under `Cc1c(-c2ccc(OC(F)F)c(OC3CC3)c2)[nH]c2cn[nH]c(=O)c12` stands 245 to 246 °C.
In turn, `Cc1ccc2c(c1)C=Cc1cc(C)ccc1C2c1cn(Cc2nc(C(=O)N[C@@H](CC(=O)O)C(=O)O)cs2)c(=O)[nH]c1=S` returned a melting point of 175 °C.
With `O=C(O)c1ccc(-c2coc3ccc(-c4ccccc4)cc23)cc1` the figure was 245 to 248 °C; with `C=C(C)c1cccc(C(C)(C)NSc2nc3ccccc3s2)c1`, 93 to 95 °C.
`CCC(C#N)(C(=O)N1CCOCC1)c1ccccc1` (stereo unspecified) yielded a melting point of 88 to 90 °C.
With `CCN1C(=O)CN(C(=O)OCc2ccccc2)Cc2cc(OC)c([N+](=O)[O-])cc21` the figure was 55 to 56 °C; with `O=S(=O)(CC=C1CCCCC1)c1ccccc1`, 70 °C; with `CCOC(=O)C(C)(C)Sc1ccc(NCCn2c(C)nc3ccccc3c2=O)cc1`, 226 to 228 °C.
Under `CCOC(=O)c1c(C(F)(F)F)nc(C(F)F)c(C(=O)O)c1N` stands 142 to 151 °C; under `COc1c(Cl)ccc(-c2cc(N)c(Cl)c(C(=O)NOC3CCCCO3)n2)c1F` (stereo unspecified), 176 to 179 °C; under `COc1ccc(-c2cc3cc(OC)cc(C(=O)N(C)OC)c3o2)cc1`, 109 to 111 °C.
Under `CN(C)C(=NC(=Nc1ccccc1)N1CCOCC1)N(C)C` stands 115 to 119 °C.
Compound `CC(C(N)=O)c1ccc2c(c1)Oc1ncccc1CC2=O` (stereo unspecified) gave a melting point of 89 to 90 °C.
With `CC(C)(C)c1ccc(C(=O)Nc2cn3nc(NC4CCCCC4)ccc3n2)cc1` the figure was 296 to 297 °C; with `CC(C)(C)C(=O)OCn1c(-c2cnn(-c3c(Cl)cc(C(F)(F)F)cc3Cl)n2)nc(C#N)c1C#N`, 103 to 104 °C; with `CC(C)(O)c1ccc(-c2ccc3nnn(Cc4ccc5ncccc5c4)c3n2)cc1F`, 85 to 89 °C.
With `CN1CC(=O)N2c3ccccc3Cn3c(cc4ccccc43)C2C1=O` (stereo unspecified) the figure was 188 to 189 °C; with `C/C(=C\c1cccc2ccccc12)C(=O)O`, 155 °C; with `COc1ccc(C2=N[C@H](c3ccccc3)[C@@H](OC(=O)Oc3ccc([N+](=O)[O-])cc3)CO2)cc1` (racemic), 164 °C.
Under `Cc1cccc(-c2nc(NC3CCCCC3)c3ccccc3n2)n1` stands 253 to 255 °C.
On to `COc1ccc2oc(Cc3cccc(C(F)(F)F)c3)c(CC#N)c2c1`, for which the melting point was found to be 116 °C.
Under `CC(C)[C@H]1COC(=O)N1C(=O)[C@@H](CC(=O)N(C)Cc1ccccc1)Cc1ccccc1` stands 60 to 62 °C; under `Cc1ccc(S(=O)(=O)N(CC(=O)N(C)C)c2ccc(Cl)cc2C(=O)c2ccccc2Cl)cc1`, 154 to 157 °C.
Under `OC(c1ccccc1)(c1ccccc1Cl)c1nccn1Cc1ccccc1` (stereo unspecified) stands 168 °C; under `O=C1OCCN1c1ccc(OC(F)C(F)(F)F)cc1` (stereo unspecified), 74 to 76 °C; under `O=C(NCCc1ccc([N+](=O)[O-])cc1)C(F)(F)F`, 96 to 97 °C.
With `CCOC(=O)c1cc(-c2ccccc2)n(-c2cccc(Cl)c2)c1C` the figure was 99.6 to 100 °C.
`NC(=O)c1ccc2c([N+](=O)[O-])cc3c(c2c1)C(CCl)CN3` (stereo unspecified) came in with a melting point of over 300 °C.
With `O=C(O)C=Cc1ccc(CCNC(=O)c2ccc(Cl)cc2)cc1` the figure was 253 to 255 °C.
Under `O=C(Nc1ccc(-n2nc(C(F)(F)F)cc2C(F)(F)F)cc1)c1cccnc1` stands 185 to 188 °C.
Under `CCOC(=O)COn1c2c([nH]c(=O)c1=O)CCC1=C2C=C(n2c(C)ccc2C)CC1` stands 157 to 158 °C; under `CCCS(=O)(=O)c1c(Cl)cnc(Cl)c1Cl`, 73 to 78 °C; under `COc1ccc(Br)c2c1C(=O)CC2`, 125 to 128 °C.
`O=C(O)CN1Cc2ccccc2CC(NC(=O)OCC2c3ccccc3-c3ccccc32)C1=O` (stereo unspecified) had a melting point of 117 to 120 °C.
With `COC(=O)c1cc(=O)c(O)co1` the figure was 184 to 186 °C.
With `CCOC(=O)CCCOc1ccc(CC(C)(C)N)cc1` the figure was 103 to 105 °C.
Regarding `O=C(O)/C=C/c1ccc(-c2nc3c([nH]2)c(=O)n(CC2CCCCC2)c(=O)n3CC2CCCCC2)s1`, the melting point was over 300 °C.
With `CCS(=O)(=O)Oc1ccccc1S(N)(=O)=O` the figure was 90 to 92.5 °C.
Under `COc1ccc(N2CCOCC2)cc1NC(=O)c1ncc[nH]1` stands 227 to 230 °C; under `CCCCCCC(C(=O)O)n1c(C(F)(F)F)nc2cc(-c3ccccc3-c3nn[nH]n3)ccc21` (stereo unspecified), 128 to 130 °C; under `O=C(O)CC(CC(=O)O)Cc1ccc(O)cc1`, 117 to 119 °C.
Under `CCOC(=O)c1ccc(CCN2CC=C(c3c[nH]c(-c4ccc(F)cc4)c3-c3ccncc3)CC2)cc1` stands 217 to 218 °C; under `O=P1(c2ccc(F)cc2)c2ccccc2CN1c1ccc(Br)cc1` (stereo unspecified), 201 to 205 °C; under `CC(=O)OCCCOc1ccc2nc3c(cc2c1)NCN3`, 301 to 303 °C.
In turn, `COCCCCC(=O)c1cc(C(=O)O)c2cc(Cc3ccc(F)cc3)cnc2c1O` showed a melting point of 216 to 218 °C.
With `CCOC(=O)c1cn(Cc2ccccc2)nc1OCc1ccc(OCc2nc(-c3ccco3)oc2C)c(-c2ccccc2)c1` the figure was 134 to 135 °C.
Under `Cc1cc(C(=O)NC(=N)N)no1` stands 192 °C; under `Cn1cc(-c2cc(-c3cnc4c(c3)CC(=O)N4)ccn2)n(-c2ccc(C(C)(C)C#N)cc2)c1=O`, 263 °C.
`COC(=O)c1ccc(-c2ccc3cc4c(cc3c2)C(C)(C)CCC4(C)C)cc1O` registered a melting point of 145 to 146 °C.
Under `COC(=O)c1sccc1S(=O)(=O)Nc1onc(C)c1C` stands 113 to 116 °C; under `Cc1cc(C(O)(C(F)(F)F)C(F)(F)F)cc(C)c1NCC(N)=O`, 205 to 207 °C; under `Cn1c(C(F)(F)F)cc(=O)n(-c2ccc(Cl)c(C=CC(=O)OCC(F)(F)F)c2)c1=O`, 170 to 172 °C.
Under `Cc1cccc(Nc2ccccc2C(=O)OCC(=O)N(C)C)c1C` stands 85 to 86 °C; under `CC(=O)c1c(C)c2cnc(Nc3ccc(N4CCOCC4)nc3)nc2n(C2CCCC2)c1=O`, 224 to 226 °C.
With `Cc1c(C)c2c(c(C)c1O)CCC(C)(CC(=O)N(C)C)O2` (stereo unspecified) the figure was 142 °C; with `Cc1cc(C=CC(=O)COc2ccc(CC(=O)O)cc2)cc(C)c1O`, 151 to 154 °C.
In turn, `Cc1occc1S(=O)(=O)C(C)(Cc1ccccc1)C(=O)NO` (stereo unspecified) came in with a melting point of 68 to 70 °C.
With `COc1ccc(S(=O)(=O)N2c3ccccc3-c3ccccc3C2C(C)(C)C)cc1` (stereo unspecified) the figure was 156 to 158 °C; with `CSc1cc(C)nc(SC)c1NC(=O)CCCCSc1nc2ccccc2o1`, 147 to 150 °C.
With `CN1Cc2c(C(=O)NN)ncn2-c2ccc(F)c(Cl)c2C1=O` the figure was 308 to 310 °C.

By melting point is commonly meant the temperature, or range, at which the solid turns liquid.
